Assay results taken from ChEMBL document CHEMBL3885881, “DrugMatrix”.
Where “and” joins values, the source holds several entries; their conditions need not be identical. Equal values may be shown once.

Species: Rattus norvegicus
Assay: DrugMatrix - Regimen: Daily Repeat
Type: toxicity, organism-based, Sprague-Dawley
Design: regimen Daily Repeat, gender Male, age 6-8 weeks
Conditions: in vivo; for ABSOLUTE BASOPHIL / ABSOLUTE EOSINOPHIL / ABSOLUTE LYMPHOCYTE / ABSOLUTE MONOCYTE / ABSOLUTE SEGMENTED NEUTROPHIL / HEMOGLOBIN / MEAN CORPUSCULAR HEMOGLOBIN / MEAN CORPUSCULAR VOLUME / BASOPHIL / EOSINOPHIL / ERYTHROCYTE COUNT / HEMATOCRIT / LEUKOCYTE COUNT / LYMPHOCYTE / MEAN CORPUSCULAR HEMOGLOBIN CONCENTRATION / MONOCYTE / NEUTROPHIL / PLATELET COUNT / NUCLEATED RED BLOOD CELLS: tissue Blood
[1] = ip, 40 mg/kg, 120 h, tissue Plasma, route intraperitoneal, dose level High, time 5 day, vehicle 100 % SALINE
[2] = ip, 40 mg/kg, […], route intraperitoneal, dose level High, time 14 day, vehicle 100 % SALINE
[3] = ip, 40 mg/kg, […], route intraperitoneal, dose level High, time 28 day, vehicle 100 % SALINE
[4] = ip, 40 mg/kg, […], tissue Plasma, route intraperitoneal, dose level High, time 14 day, vehicle 100 % SALINE
[5] = ip, 40 mg/kg, […], tissue Plasma, route intraperitoneal, dose level High, time 28 day, vehicle 100 % SALINE
[6] = sc, 34 mg/kg, 72 h, route subcutaneous, dose level Low, time 3 day, […]
[7] = sc, 34 mg/kg, 72 h, tissue Plasma, route subcutaneous, dose level Low, time 3 day, […]
[8] = sc, 34 mg/kg, 120 h, route subcutaneous, dose level Low, time 5 day, […]
[9] = sc, 34 mg/kg, 120 h, tissue Plasma, route subcutaneous, dose level Low, time 5 day, […]

Sequence: GENTAMICIN
- LIPASE [1]: 13.6 u/L and 7.25 u/L
- PHOSPHORUS [1]: 12.05 mg/dL
- POTASSIUM [1]: 5.95 MEQ/L
- SODIUM [1]: 150.75 MEQ/L
- TOTAL BILIRUBIN [1]: 0.18 mg/dL and 0.33 mg/dL
- TOTAL PROTEIN [1]: 5.74 G/DL and 6.48 G/DL
- URIC ACID [1]: 0.96 mg/dL
- ABSOLUTE BASOPHIL [2]: 72 cells/µL
- ABSOLUTE EOSINOPHIL [2]: 92 cells/µL
- ABSOLUTE LYMPHOCYTE [2]: 8980 cells/µL
- ABSOLUTE MONOCYTE [2]: 190 cells/µL
- ABSOLUTE SEGMENTED NEUTROPHIL [2]: 1000 cells/µL
- HEMOGLOBIN [2]: 15.3 G/DL
- MEAN CORPUSCULAR HEMOGLOBIN [2]: 19.4 pg
- MEAN CORPUSCULAR VOLUME [2]: 59.54 fL
- ABSOLUTE BASOPHIL [3]: 99 cells/µL
- ABSOLUTE EOSINOPHIL [3]: 110 cells/µL
- ABSOLUTE LYMPHOCYTE [3]: 11600 cells/µL
- ABSOLUTE MONOCYTE [3]: 260 cells/µL
- ABSOLUTE SEGMENTED NEUTROPHIL [3]: 1950 cells/µL
- BASOPHIL [3]: 0.7%
- EOSINOPHIL [3]: 0.81%
- ERYTHROCYTE COUNT [3]: 8.29 x10E6/uL
- HEMATOCRIT [3]: 46.05%
- HEMOGLOBIN [3]: 15.27 G/DL
- LEUKOCYTE COUNT [3]: 14.13 x10E3/uL
- LYMPHOCYTE [3]: 82.22%
- MEAN CORPUSCULAR HEMOGLOBIN [3]: 18.44 pg
- MEAN CORPUSCULAR HEMOGLOBIN CONCENTRATION [3]: 33.17 G/DL
- MEAN CORPUSCULAR VOLUME [3]: 55.59 fL
- MONOCYTE [3]: 1.82%
- NEUTROPHIL [3]: 14.01%
- PLATELET COUNT [3]: 1416.3 x10E3/uL
- CARBON DIOXIDE [4]: 25.75 mmol/L
- CHLORIDE [4]: 107 MEQ/L
- SODIUM [4]: 150 MEQ/L
- ALANINE AMINOTRANSFERASE [5]: 32.3 u/L
- ALBUMIN [5]: 3.62 G/DL
- ALKALINE PHOSPHATASE [5]: 139.3 u/L
- ASPARTATE AMINOTRANSFERASE [5]: 96 u/L
- BLOOD UREA NITROGEN [5]: 14.9 mg/dL
- CHOLESTEROL [5]: 65.3 mg/dL
- CREATINE PHOSPHOKINASE [5]: 320.4 u/L
- CREATININE [5]: 0.65 mg/dL
- LACTATE DEHYDROGENASE [5]: 119.4 u/L
- LIPASE [5]: 11 u/L
- PHOSPHORUS [5]: 9.46 mg/dL
- POTASSIUM [5]: 6.33 MEQ/L
- TOTAL BILIRUBIN [5]: 0.17 mg/dL
- TOTAL PROTEIN [5]: 6.66 G/DL
- URIC ACID [5]: 1.24 mg/dL
- ABSOLUTE BASOPHIL [6]: 0 CELLS/uL
- ABSOLUTE EOSINOPHIL [6]: 60.67 CELLS/uL
- ABSOLUTE LYMPHOCYTE [6]: 14515.67 CELLS/uL
- ABSOLUTE MONOCYTE [6]: 63 CELLS/uL
- ABSOLUTE SEGMENTED NEUTROPHIL [6]: 1227.33 CELLS/uL
- BASOPHIL [6]: 0%
- EOSINOPHIL [6]: 0.33%
- ERYTHROCYTE COUNT [6]: 5.19 x10E6/uL
- HEMATOCRIT [6]: 32.97%
- HEMOGLOBIN [6]: 12.73 G/DL
- LEUKOCYTE COUNT [6]: 15.87 x10E3/uL
- LYMPHOCYTE [6]: 91.67%
- MEAN CORPUSCULAR HEMOGLOBIN [6]: 24.57 pg
- MEAN CORPUSCULAR HEMOGLOBIN CONCENTRATION [6]: 38.63 G/DL
- MEAN CORPUSCULAR VOLUME [6]: 63.57 fL
- MONOCYTE [6]: 0.33%
- NEUTROPHIL [6]: 7.67%
- NUCLEATED RED BLOOD CELLS [6]: 0 /100WBC
- PLATELET COUNT [6]: 1222.33 x10E3/uL
- ALANINE AMINOTRANSFERASE [7]: 55.67 u/L
- ALBUMIN [7]: 4 G/DL
- ALKALINE PHOSPHATASE [7]: 327 u/L
- ASPARTATE AMINOTRANSFERASE [7]: 105 u/L
- BLOOD UREA NITROGEN [7]: 14.67 mg/dL
- CARBON DIOXIDE [7]: 20.67 mmol/L
- CHLORIDE [7]: 107.33 MEQ/L
- CHOLESTEROL [7]: 82 mg/dL
- CREATINE PHOSPHOKINASE [7]: 574.67 u/L
- CREATININE [7]: 0.29 mg/dL
- GLUCOSE [7]: 196.33 mg/dL
- LACTATE DEHYDROGENASE [7]: 268.67 u/L
- LIPASE [7]: 11.33 u/L
- POTASSIUM [7]: 6.59 MEQ/L
- SODIUM [7]: 147.27 MEQ/L
- TOTAL BILIRUBIN [7]: 0.2 mg/dL
- TOTAL PROTEIN [7]: 5.7 G/DL
- ABSOLUTE BASOPHIL [8]: 0 CELLS/uL
- ABSOLUTE EOSINOPHIL [8]: 0 CELLS/uL
- ABSOLUTE LYMPHOCYTE [8]: 14029.67 CELLS/uL
- ABSOLUTE MONOCYTE [8]: 90.67 CELLS/uL
- ABSOLUTE SEGMENTED NEUTROPHIL [8]: 1246.33 CELLS/uL
- BASOPHIL [8]: 0%
- EOSINOPHIL [8]: 0%
- ERYTHROCYTE COUNT [8]: 5.74 x10E6/uL
- HEMOGLOBIN [8]: 13.5 G/DL
- LEUKOCYTE COUNT [8]: 15.37 x10E3/uL
- LYMPHOCYTE [8]: 91%
- MEAN CORPUSCULAR HEMOGLOBIN [8]: 23.57 pg
- MEAN CORPUSCULAR HEMOGLOBIN CONCENTRATION [8]: 36.03 G/DL
- MONOCYTE [8]: 0.67%
- NEUTROPHIL [8]: 8.33%
- NUCLEATED RED BLOOD CELLS [8]: 0 /100WBC
- PLATELET COUNT [8]: 1310.33 x10E3/uL
- ALANINE AMINOTRANSFERASE [9]: 46.33 u/L
- ALBUMIN [9]: 4.2 G/DL
- ALKALINE PHOSPHATASE [9]: 391.33 u/L
- ASPARTATE AMINOTRANSFERASE [9]: 95.33 u/L
- CARBON DIOXIDE [9]: 24 mmol/L
- CHLORIDE [9]: 106.67 MEQ/L
- CHOLESTEROL [9]: 71 mg/dL
- CREATINE PHOSPHOKINASE [9]: 308.33 u/L
- CREATININE [9]: 0.18 mg/dL
- LACTATE DEHYDROGENASE [9]: 196.33 u/L
- PHOSPHORUS [9]: 13.37 mg/dL
- POTASSIUM [9]: 7.64 MEQ/L
- TOTAL BILIRUBIN [9]: 0.2 mg/dL
